Measured values from ChEMBL document CHEMBL3286303, “Synthesis and in vitro antiproliferative evaluation of novel N-alkylated 6-isobutyl- and propyl pyrimidine derivatives” (Bioorg Med Chem Lett, 2014).
Activity calls are given as the source filed them. No cut-off for these calls is given here.

Assays:
MCF7 [1] = test: Cell cycle arrest in human MCF7 cells as assessed as accumulation at S phase at 0.1 uM after 24 hrs by propidium iodide staining-based flow cytometric analysis relative to control; assay type: functional
SW-620 [2] = test: Cell cycle arrest in human SW620 cells as assessed as accumulation at G1 phase at 1 uM after 24 hrs by propidium iodide staining-based flow cytometric analysis relative to control; assay type: functional
SW-620 [3] = test: Cell cycle arrest in human SW620 cells as assessed as accumulation at G1 phase at 0.1 uM after 48 hrs by propidium iodide staining-based flow cytometric analysis relative to control; assay type: functional
MCF7 [4] = test: Cell cycle arrest in human MCF7 cells as assessed as accumulation at G1 phase at 1 uM after 48 hrs by propidium iodide staining-based flow cytometric analysis relative to control; assay type: functional
HeLa = test: Antiadhesive activity against human HeLa cells at 5 uM after 2 to 24 hrs by crystal-violet staining-based microscopic analysis; assay type: functional, cell-based
SW-620 [5] = test: Cell cycle arrest in human SW620 cells as assessed as accumulation at G1 phase at 0.1 uM after 24 hrs by propidium iodide staining-based flow cytometric analysis relative to control; assay type: functional
SW-620 [6] = test: Cell cycle arrest in human SW620 cells as assessed as accumulation at S phase at 1 uM after 24 hrs by propidium iodide staining-based flow cytometric analysis relative to control; assay type: functional
WI-38 [7] = test: Cell cycle arrest in human WI38 cells as assessed as accumulation at S phase at 0.1 uM after 24 hrs by propidium iodide staining-based flow cytometric analysis relative to control; details: wi-38, 24 h
SW-620 [8] = test: Cell cycle arrest in human SW620 cells as assessed as accumulation at S phase at 0.1 uM after 48 hrs by propidium iodide staining-based flow cytometric analysis relative to control; assay type: functional
SW-620 [9] = test: Cell cycle arrest in human SW620 cells as assessed as accumulation at S phase at 0.1 uM after 24 hrs by propidium iodide staining-based flow cytometric analysis relative to control; assay type: functional
WI-38 [10] = test: Cell cycle arrest in human WI38 cells as assessed as accumulation at S phase at 1 uM after 48 hrs by propidium iodide staining-based flow cytometric analysis relative to control; details: wi-38, 48 h
BJ = test: Antiadhesive activity against human BJ cells at 5 uM after 2 to 24 hrs by crystal-violet staining-based microscopic analysis; assay type: ADME, cell-based
K562 [11] = test: Cell cycle arrest in human K562 cells as assessed as accumulation at S phase at 1 uM after 24 hrs by propidium iodide staining-based flow cytometric analysis relative to control; assay type: functional
HepG2 = test: Antiproliferative activity against human HepG2 cells after 72 hrs by MTT assay; assay type: functional, cell-based
SW-620 [12] = test: Cell cycle arrest in human SW620 cells as assessed as accumulation at G2/M phase at 1 uM after 24 hrs by propidium iodide staining-based flow cytometric analysis relative to control; assay type: functional
MCF7 [13] = test: Cell cycle arrest in human MCF7 cells as assessed as accumulation at sub-G1 phase at 0.1 uM after 48 hrs by propidium iodide staining-based flow cytometric analysis relative to control; assay type: functional
SW-620 [14] = test: Cell cycle arrest in human SW620 cells as assessed as accumulation at sub-G1 phase at 1 uM after 24 hrs by propidium iodide staining-based flow cytometric analysis relative to control; assay type: functional
MCF7 [15] = test: Cell cycle arrest in human MCF7 cells as assessed as accumulation at G2/M phase at 1 uM after 48 hrs by propidium iodide staining-based flow cytometric analysis relative to control; assay type: functional
MCF7 [16] = test: Cell cycle arrest in human MCF7 cells as assessed as accumulation at S phase at 0.1 uM after 48 hrs by propidium iodide staining-based flow cytometric analysis relative to control; assay type: functional
SW-620 [17] = test: Cell cycle arrest in human SW620 cells as assessed as accumulation at G2/M phase at 0.1 uM after 48 hrs by propidium iodide staining-based flow cytometric analysis relative to control; assay type: functional
K562 [18] = test: Cell cycle arrest in human K562 cells as assessed as accumulation at G2/M phase at 0.5 uM after 48 hrs by propidium iodide staining-based flow cytometric analysis relative to control; assay type: functional
SW-620 [19] = test: Cell cycle arrest in human SW620 cells as assessed as accumulation at G2/M phase at 0.1 uM after 24 hrs by propidium iodide staining-based flow cytometric analysis relative to control; assay type: functional
K562 [20] = test: Cell cycle arrest in human K562 cells as assessed as accumulation at G1 phase at 1 uM after 48 hrs by propidium iodide staining-based flow cytometric analysis relative to control; assay type: functional
K562 [21] = test: Cell cycle arrest in human K562 cells as assessed as accumulation at S phase at 0.5 uM after 24 hrs by propidium iodide staining-based flow cytometric analysis relative to control; assay type: functional
WI-38 [22] = test: Cell cycle arrest in human WI38 cells as assessed as accumulation at G2/M phase at 1 uM after 24 hrs by propidium iodide staining-based flow cytometric analysis relative to control; details: wi-38, 24 h
[23] = (§1) Antiproliferative activity against human MIAPaCa2 cells after 72 hrs by MTT assay; assay type: functional, cell-based; details: MIA PaCa-2, 72 h
MIA PaCa-2 = test: as §1; assay type: functional, cell-based
SW-620 [24] = test: Cell cycle arrest in human SW620 cells as assessed as accumulation at sub-G1 phase at 0.1 uM after 48 hrs by propidium iodide staining-based flow cytometric analysis relative to control; assay type: functional
MCR = test: Antiproliferative activity against human MCR cells after 72 hrs by MTT assay; assay type: cell-based; details: human, mcr
K562 [25] = test: Cell cycle arrest in human K562 cells as assessed as accumulation at G2/M phase at 1 uM after 24 hrs by propidium iodide staining-based flow cytometric analysis relative to control; assay type: functional
K562 [26] = test: Cell cycle arrest in human K562 cells as assessed as accumulation at G2/M phase at 0.5 uM after 24 hrs by propidium iodide staining-based flow cytometric analysis relative to control; assay type: functional
SW-620 [27] = test: Cell cycle arrest in human SW620 cells as assessed as accumulation at sub-G1 phase at 1 uM after 48 hrs by propidium iodide staining-based flow cytometric analysis relative to control; assay type: functional
K562 [28] = test: Cell cycle arrest in human K562 cells as assessed as accumulation at G2/M phase at 0.1 uM after 24 hrs by propidium iodide staining-based flow cytometric analysis relative to control; assay type: functional
WI-38 [29] = test: Cell cycle arrest in human WI38 cells as assessed as accumulation at G2/M phase at 0.1 uM after 48 hrs by propidium iodide staining-based flow cytometric analysis relative to control; details: wi-38, 48 h
SW-620 [30] = test: Cell cycle arrest in human SW620 cells as assessed as accumulation at G1 phase at 1 uM after 48 hrs by propidium iodide staining-based flow cytometric analysis relative to control; assay type: functional
SW-620 [31] = test: Cell cycle arrest in human SW620 cells as assessed as accumulation at G2/M phase at 1 uM after 48 hrs by propidium iodide staining-based flow cytometric analysis relative to control; assay type: functional
K562 [32] = test: Antiproliferative activity against apoptosis-resistant, Philadelphia chromosome-positive human K562 cells after 72 hrs by PrestoBlue colorimetric assay; assay type: functional, cell-based; details: K562, 72 h
K562 [33] = test: Cell cycle arrest in human K562 cells as assessed as accumulation at sub-G1 phase at 1 uM after 24 hrs by propidium iodide staining-based flow cytometric analysis relative to control; assay type: functional

- Activity (WI-38 [7]): 8.9%
- Activity (WI-38 [10]): 3.4%
- Activity (WI-38 [22]): 5.1%
- Activity (WI-38 [29]): 5.7%
- IC50 (K562 [32]): 0.6 µM
Structure (SMILES): COCn1c(CC(COCc2ccccc2)COCc2ccccc2)c(C)c(=O)n(COC)c1=O
- Activity (MCF7 [1]): 9.7%
- Activity (SW-620 [2]): 55.9%
- Activity (SW-620 [3]): 49.7%
- Activity (MCF7 [4]): 11.5%
- Activity (HeLa): Active
- Activity (SW-620 [5]): 51.5%
- Activity (SW-620 [6]): 16.1%
- Activity (SW-620 [8]): 25.6%
- Activity (SW-620 [9]): 19.6%
- Activity (BJ): Toxic
- Activity (K562 [11]): 26.6%
- Activity (HepG2): Dose-dependent effect
- Activity (SW-620 [12]): 20.1%
- Activity (MCF7 [13]): 50.5%
- Activity (SW-620 [14]): 5.2%
- Activity (MCF7 [15]): 3.8%
- Activity (MCF7 [16]): 11.9%
- Activity (SW-620 [17]): 15.5%
- Activity (K562 [18]): 3.9%
- Activity (SW-620 [19]): 21.7%
- Activity (K562 [20]): 51.8%
- Activity (K562 [21]): 5.6%
- IC50 [23]: 0.5 µM
- Activity (MIA PaCa-2): Dose-dependent effect
- Activity (SW-620 [24]): 6.8%
- Activity (MCR): Dose-dependent effect
- Activity (K562 [25]): 18.4%
- Activity (K562 [26]): 4.8%
- Activity (SW-620 [27]): 6.7%
- Activity (K562 [28]): 22.2%
- Activity (SW-620 [30]): 53.1%
- Activity (SW-620 [31]): 15.8%
- Activity (K562 [33]): 3.1%
